{"source": "paper PMC5940834", "about": "“Discovery and functional characterisation of a luqin-type neuropeptide signalling system in a deuterostome” (Scientific Reports, 2018)", "key": {"ArLQR2": {"tested_on": "ArLQR2", "test": "ArLQ/neuropeptide activation of ArLQR2, bioluminescence in CHO-ArLQR2 cells", "type": "cell-based, Asterias rubens", "conditions": "ArLQ 1 × 10^−4 to 1 × 10^−14 M, other neuropeptides 1 × 10^−4 to 1 × 10^−13 M", "text": "(§1) To enable pharmacological characterisation of ArLQR1 and ArLQR2, cDNAs encoding these receptors were amplified by PCR, using A. rubens radial nerve cord total cDNA, specific primers (see supplementary Table 1 for a list of the primers) and Q5 polymerase (NEB; Cat. No. M0491S). First, the receptor cDNAs were ligated into the phagemid vector pBluescript II SK + (Agilent Technologies; Cat. No. 212205) using a blunt-end ligation method. The vector was cut with the restriction enzyme EcoRV (NEB; Cat. No. R0195S) and the ligation was performed using T4 DNA ligase (NEB; Cat. No. M0202S). Successful ligation was confirmed by PCR, restriction enzyme digestion and sequencing (TubeSeq service; Eurofins Genomics). The receptor cDNAs were then sub-cloned into the eukaryotic expression vector pcDNA 3.1( + ) (Invitrogen; Cat. No. V790-20). To accomplish this, forward primers included the partial Kozak consensus sequence (ACC) and a sequence corresponding to the first 21 bases of the ArLQR1 or ArLQR2 ORFs, including the start codon. Reverse primers consisted of a stop codon and a sequence reverse complementary to the ORF encoding the C-terminal region of ArLQR1 or ArLQR2 (see supplementary Table 1 for a list of the primers). PCR was performed using Q5 polymerase NEB and the cDNA products were ligated into the pcDNA 3.1(+) vector that had been cut previously with the restriction enzyme EcoRV by performing blunt-end ligation with T4 DNA ligase NEB. The direction of the insert was determined by restriction enzyme digestion and sequencing. The ArLQR1 and ArLQR2 sequences have been deposited in the GenBank database under accession numbers MG744509 and MG744510 respectively.\n(§2) To determine if ArLQ acts as a ligand for ArLQR1 and/or ArLQR2, the receptors were expressed in Chinese hamster ovary cells (CHO-K1) stably expressing the calcium-sensitive bioluminescent reporter GFP-aequorin fusion protein (G5A)[43]. CHO-K1 cells were maintained at 37 °C in T25 culture flasks (USA Scientific; Cat. No. CC7682-4325) containing 6 ml of DMEM/F12 Nutrient Mixture medium (Thermo Fisher Scientific; Cat. No. 11039047) supplemented with 10% fetal bovine serum (Thermo Fisher Scientific; Cat. No. 10082147), Antibiotic-Antimycotic 1 × (Thermo Fisher Scientific, Cat. No. 15240062) and 200 μg/ml of Geneticin G418 sulfate (Thermo Fisher Scientific, Cat. No. 10131035). Upon reaching a confluency of approximately 80%, cells were transfected with the plasmids containing ArLQR1 or ArLQR2 receptor cDNAs and a plasmid containing the promiscuous Gα-16 protein that can couple a wide range of GPCRs to the phospholipase C pathway. The transfection was achieved using 5 µg of each plasmid and 8 μl of the transfection reagent Lipofectamine 3000 following the manufacturer instructions (Thermo Fisher Scientific; Cat. No. L3000008). Two days post-transfection, the culture medium was removed and the cells detached by the addition of 2 ml of 1 × PBS buffer pH 7.4 (Thermo Fisher Scientific; Cat. No. 10010023) supplemented with UltraPure EDTA 0.5 M pH 8.0 (Thermo Fisher Scientific; Cat. No. 15575020) to a final concentration of 5 mM EDTA. […] Luminescence levels were recorded over a 35-second period using a FLUOstar Omega Plate Reader (BMG LABTECH; FLUOstar Omega Series multi-mode microplate reader). […]"}, "ArLQR1": {"tested_on": "ArLQR1", "test": "ArLQ/neuropeptide activation of ArLQR1, bioluminescence in CHO-ArLQR1 cells", "type": "cell-based, Asterias rubens", "conditions": "ArLQ 1 × 10^−4 to 1 × 10^−14 M, other neuropeptides 1 × 10^−4 to 1 × 10^−13 M", "text": "as §1, §2"}, "[1]": {"tested_on": "cardiac stomach preparations", "conditions": "\"all three of these preparations\"; cited from earlier work", "description": "Informed by findings from analysis of the expression of ArLQP in A. rubens (see results), synthetic ArLQ (custom synthesized by PPR Ltd, Fareham, UK) was tested on tube foot and cardiac stomach preparations from A. rubens. […] Tube foot preparations were obtained by dissecting from starfish arms a small square-shaped piece of ambulacral body wall containing a single tube foot stem and its associated ampulla. Co ..."}, "tube foot preparations": {"tested_on": "tube foot preparations", "conditions": "A. rubens; cited from earlier work", "text": "Figure 6 ArLQ causes relaxation of in vitro preparations of tube feet from A. rubens. […] (B). […] Tube foot preparations were obtained by dissecting from starfish arms a small square-shaped piece of ambulacral body wall containing a single tube foot stem and its associated ampulla. Co ..."}, "heart ventricle": {"tested_on": "heart ventricle", "conditions": "Achatina fulica; cited from earlier work", "text": "(§3) Neuropeptides play a central role in the control of diverse physiological processes and behaviours in animals. Furthermore, neuropeptides are evolutionarily ancient mediators of neuronal signalling and a large number of different neuropeptide signalling pathways were already present in the common ancestor of protostomes and deuterostomes[1]–[3]. The discovery of neuropeptide signalling systems has been enabled by a variety of experimental strategies. The luqin-type neuropeptide system that is the focus of this study was first discovered using a molecular biological approach where the object ..."}, "[2]": {"tested_on": "neurons and muscles involved in feeding behaviour", "conditions": "Achatina fulica; cited from earlier work", "text": "as §3"}, "GRL106": {"tested_on": "GRL106", "conditions": "orphan G-protein coupled receptor; cited from earlier work", "text": "as §3"}, "auricle preparations": {"tested_on": "auricle preparations", "conditions": "Lymnaea stagnalis; cited from earlier work", "text": "as §3"}, "[3]": {"tested_on": "receptor for the luqin-type peptide WRPGRFamide", "conditions": "cited from earlier work", "text": "as §3"}}, "note": "“Also recorded” adds a separate entry of the source. Where no end group is shown, it is not given here.", "data": [{"substance": "GGGVPHVFQSGGIF-NH2 [ArTK2, tachykinin-like peptide from A. rubens]", "values": [{"measurement": "activation of ArLQR2 (in words)", "setting": "ArLQR2", "result": "none of them caused activation of the receptors"}, {"measurement": "activation of ArLQR2 (in words)", "setting": "ArLQR2; listed as ArTKL", "result": "do not activate the receptors"}, {"measurement": "activation of ArLQR1 (in words)", "setting": "ArLQR1", "result": "none of them caused activation of the receptors"}, {"measurement": "activation of ArLQR1 (in words)", "setting": "ArLQR1; listed as ArTKL", "result": "do not activate the receptors"}]}, {"substance": "SGPYSFNSGLTF-NH2 [S2]", "values": [{"measurement": "relaxant effect on cardiac stomach and other preparations (earlier studies)", "setting": "[1]", "result": "relaxant of all three of these preparations"}, {"measurement": "activation of ArLQR2 (in words)", "setting": "ArLQR2", "result": "do not activate the receptors"}, {"measurement": "activation of ArLQR2 (in words)", "setting": "ArLQR2; listed as SALMFamide-2", "result": "none of them caused activation of the receptors"}, {"measurement": "activation of ArLQR1 (in words)", "setting": "ArLQR1", "result": "do not activate the receptors"}, {"measurement": "activation of ArLQR1 (in words)", "setting": "ArLQR1; listed as SALMFamide-2", "result": "none of them caused activation of the receptors"}, {"measurement": "relaxation of tube foot preparations (earlier studies)", "setting": "tube foot preparations", "result": "known tube foot relaxant; also recorded: causes relaxation of tube foot preparations; also recorded: relaxant of all three of these preparations"}]}, {"substance": "SGQWRPQGRF-NH2 [ACEP-1, homolog of luqin (…amide) discovered in the snail Achatina fulica]", "values": [{"measurement": "effect on beat of the heart ventricle", "setting": "heart ventricle", "result": "potentiating the beat of the heart ventricle"}, {"measurement": "effect on neurons and muscles involved in feeding behaviour", "setting": "[2]", "result": "excitatory effects on neurons and muscles involved in feeding behaviour"}]}, {"substance": "TPHWRPQGRF-NH2 [LyCEP, luqin-type peptide (…amide) discovered in the pond snail Lymnaea stagnalis]", "values": [{"measurement": "receptor identified for the peptide (GRL106)", "setting": "GRL106", "result": "identified as the receptor for this peptide"}, {"measurement": "effect on beating frequency of auricle preparations", "setting": "auricle preparations", "result": "increases the beating frequency of auricle preparations"}]}, {"substance": "WRPGRF-NH2 [luqin-type peptide of the annelid Platynereis dumerilii]", "values": [{"measurement": "receptor identified for the peptide (P. dumerilii)", "setting": "[3]", "result": "has been identified in the annelid Platynereis dumerilii"}]}, {"substance": "pQDRSKAMQAERTGQLRRLNPRF-NH2 [ArNPY, Neuropeptide Y-type peptide from A. rubens]", "values": [{"measurement": "activation of ArLQR2 (in words)", "setting": "ArLQR2", "result": "do not activate the receptors; also recorded: none of them caused activation of the receptors"}, {"measurement": "activation of ArLQR1 (in words)", "setting": "ArLQR1", "result": "do not activate the receptors; also recorded: none of them caused activation of the receptors"}]}]}
